# Source: patent US7169781B2, “Imidazole derivatives and their use as pharmaceutical agents” (Hoffmann-La Roche Inc., priority 2003, dated 2007)
# Assays:
# Src (p60^c-src) = biological target: T1, Src (p60^c-src) (Homo sapiens, UniProt P12931); assay: SRC-Inhibitor-Assay (time-resolved fluorescence kinase assay); format: biochemical; settings: ATP 5 μM; enzyme pre-incubated with inhibitor 15 min at 15° C.
# T1 construct: purchased Upstate (UBI)
# Experimental: SRC-Inhibitor-Assay Parameters:
# Assay buffer: 4 mM MgCl2 • 2 mM TCEP • 50 mM HEPES • 0.1% Tween 20 • pH 7.3
# Inhibitor: max. 25 μM • min. 0.42 nM Material:
# Eu-labelled phosphotyrosine antibody:—for Lck Cisbio Mab PT66-K, • for Src EG&G Wallac PT66 Eu-W1024 (all commercially available).
# Peptides: Ro: NH2-A-E-E-E-I-Y-G-E-F-E-A-K-K-K-K-CONH2 (SEQ ID NO: 1), and Ja133-Ro: Ja133-G-Aminocaprylic acid-A-E-E-E-I-Y-G-E-F-E-A-K-K-K-K-CONH2 (SEQ ID NO: 2) wherein Ja133 is LightCycler-Red 640-N-hydroxy succinimide ester; whereby both peptides were synthesized by an optimized solid phase peptide synthesis protocol (Merrifield, Fed. Proc. Fed. Amer. Soc. Exp. Biol. 21 (1962) 412) on a Zinsser SMP350 peptide synthesizer. Shortly, the peptide was assembled on 160 mg (22.8 μmol scale) of a Rink-Linker modified polystyrene solid phase by repeatedly conjugating an twenty fold excess of aminoacids each protected by temporary piperidine labile Fmoc- and permanent acid labile tert-Bu-, BOC- and Otert-Bu-groups depending on the side chain function. The substrate sequence AEEEIYGEFEAKKKK (SEQ ID NO: 1) was N-terminal additionally mounted with the spacer amino acids Aminocaprylic acid and Glycin. After cleavage of the N-terminal temporary protecting group the still attached and protected peptide was labeled with a 1.5 fold amount of LightCycler-Red 640-N-hydroxy succinimide ester (purchased by Roche Diagnostics GmbH) and triethylamine. After 3 hrs. the resin was washed with Dimethylformamide and Isopropanol until the eluates of the blue resin got colourless. […] The substrate was finally isolated by a preparative reverse phase HPLC purification. The purification yielded 12.2 mg RP-HPLC single peak pure blue material (lyophilisate). The identity was proven by MALDI mass spectroscopy [2720.0].
# Enzymes: Upstate Lck (p56^lck, active), Upstate Src (p60^c-src, partially purified) were purchased from UBI.
# Time-resolved Fluorescence Assay: Reader: Perkin Elmer, Wallac Viktor 1420-040 multilabel counter; Liquid handling system: Beckman Coulter, Biomek 2000.
# ATP, Tween 20, HEPES were purchased from Roche Molecular Biochemicals, MgCl2 and MnCl2 were purchased from Merck Eurolab, TCEP was purchased from Pierce, 384 Well low volume fluorescence plates was purchased from Falcon.
# At first the enzyme is pre-incubated for 15 min. at 15° C. in aqueous solution with corresponding amounts of inhibitors according to this invention. Then the phosphorylation reaction is started by adding a reaction mixture, containing ATP, Peptide and PT66, and subsequent shaking. The proceeding of this reaction is immediately monitored using time resolved fluorescence spectroscopy in a suitable well plate reader.
# The IC50-values can be obtained from the reaction rates by using a non-linear curve fit (Excelfit).
# c-met = biological target: T2, c-met (Homo sapiens, UniProt P08581); assay: C-met-Inhibitor-Assay (ELISA type assay measuring phosphorylation of c-met from HT29 cell lysate); format: biochemical; settings: ATP final conc. 40 μM, 60 min at room temperature
# T2 construct: Cell lysate of human colon adenocarcinoma HT29 known for its high content of c-met; endogenous in cells; host or cells: HT29 (ATCC HTB-38), human colon adenocarcinoma
# T2 sequence (P08581 25-1390): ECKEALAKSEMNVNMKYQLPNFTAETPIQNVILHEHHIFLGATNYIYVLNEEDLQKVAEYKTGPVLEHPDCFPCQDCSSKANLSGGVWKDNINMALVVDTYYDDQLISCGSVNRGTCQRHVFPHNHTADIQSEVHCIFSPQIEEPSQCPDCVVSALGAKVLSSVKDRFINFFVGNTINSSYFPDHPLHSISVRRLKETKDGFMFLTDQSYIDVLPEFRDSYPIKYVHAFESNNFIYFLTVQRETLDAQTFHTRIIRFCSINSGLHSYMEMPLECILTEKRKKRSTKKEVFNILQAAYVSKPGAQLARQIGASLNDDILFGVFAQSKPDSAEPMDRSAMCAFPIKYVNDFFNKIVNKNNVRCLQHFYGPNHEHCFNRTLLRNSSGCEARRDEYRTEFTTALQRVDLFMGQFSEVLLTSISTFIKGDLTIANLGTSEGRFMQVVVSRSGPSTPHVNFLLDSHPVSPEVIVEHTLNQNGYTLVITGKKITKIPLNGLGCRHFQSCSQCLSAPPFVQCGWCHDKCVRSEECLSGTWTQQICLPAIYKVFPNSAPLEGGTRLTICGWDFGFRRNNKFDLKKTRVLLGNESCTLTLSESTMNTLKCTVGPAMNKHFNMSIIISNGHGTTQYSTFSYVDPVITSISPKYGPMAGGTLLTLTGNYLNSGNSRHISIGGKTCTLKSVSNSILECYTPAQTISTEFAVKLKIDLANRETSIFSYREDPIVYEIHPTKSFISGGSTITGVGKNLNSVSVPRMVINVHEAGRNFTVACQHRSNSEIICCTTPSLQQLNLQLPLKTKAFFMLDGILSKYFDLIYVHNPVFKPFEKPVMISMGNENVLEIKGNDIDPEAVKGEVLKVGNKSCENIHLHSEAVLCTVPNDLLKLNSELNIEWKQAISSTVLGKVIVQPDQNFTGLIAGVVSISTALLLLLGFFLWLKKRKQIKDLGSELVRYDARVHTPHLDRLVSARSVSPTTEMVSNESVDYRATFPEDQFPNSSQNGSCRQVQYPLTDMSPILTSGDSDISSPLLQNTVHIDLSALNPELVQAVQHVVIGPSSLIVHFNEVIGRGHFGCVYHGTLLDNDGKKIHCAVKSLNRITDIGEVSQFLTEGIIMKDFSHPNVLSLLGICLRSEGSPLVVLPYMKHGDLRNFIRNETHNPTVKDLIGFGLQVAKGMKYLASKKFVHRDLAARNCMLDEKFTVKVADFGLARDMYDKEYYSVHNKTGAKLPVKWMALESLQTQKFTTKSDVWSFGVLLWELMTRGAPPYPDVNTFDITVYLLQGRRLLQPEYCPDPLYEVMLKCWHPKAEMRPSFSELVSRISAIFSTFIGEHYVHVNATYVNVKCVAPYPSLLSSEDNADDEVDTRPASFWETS
# Text: C-met-Inhibitor-Assay: Assay Principle
# C-met is a typical tyrosine kinase which is involved in metastasis, proliferation/apoptosis and angiogenesis of tumors. The assay is an ELISA type assay measuring the phosphorylation of c-met using a phospho-tyrosine specific antibody.
# Cell lysate of human colon adenocarcinoma HT29 known for its high content of c-met is bound to the wells of a microtiterplate (MTP) via an anti-hHGF receptor antibody (anti-hHGFR). ATP-phosphorylation of c-met is detected in presence or absence of the test compounds by using a phospho-tyrosine mouse IgG and a POD labeled goat anti-mouse IgG detection system. Using the classical POD substrate TMB, an absorption at 450 nm/620 nm is used to calculate enzymatic activity.
# Plates: 96-well polystyrene plates (NUNC) streptavidin-coated microtiter plates Cell line/Lysate: HT29 (ATCC HTB-38), human colon adenocarcinoma (confluence: 2.5×10^5 cells/cm^2) are washed with PBS and incubated with Lysis buffer for 10 min on ice. Supernatent is collected and diluted with TBS. Lysate is shockfrozen in liquid nitrogen and stored at −80° C.)
# Reagents (all working solutions are kept at 4° C., unless stated otherwise): • anti-hHGFR detection stock solution: 50 μg/ml (R&D Systems, Cat.No. BAF 358) antibody final conc.: 1 μg/ml • p-Tyr (PY99) mouse stock solution: 200 μg/ml (Santa Cruz Biotechnology, monoclonal IgG2b Cat.No. SC-7020) final conc.: 0.2 μg/ml • goat-anti-mouse IgG: 2 ml (BIO RAD, Cat.No. 170-6516) • (H+L)-HRP Conjugate; final conc.: 1:2000 • Blocking Reagent: Roche Diagnostics GmbH, Cat.No.1112589 for ELISA diluted 1:10 in TBS • ATP: Adenosine-5′-triphosphate, stock solution 10 mM, stock solution 10 mM (Roche • Diagnostics GmbH, Cat.No. 127531) final conc.: 40 μM • TBS: Tris-buffered saline, 50 mM TRIS pH 7.5 (Roche Diagnostics GmbH, Cat.No. 708976), 150 mM NaCl (SIGMA, Cat.No. S-3014) • Wash buffer TBS-T: Tris-buffered saline, 50 mM TRIS pH 7.5 150 mM NaCl, containing 0.5% Tween20 • Kinase buffer: Tris-buffered saline, 50 mM TRIS pH 7.5, 100 mM NaCl, 60 mM MgCl2 (SIGMA Chemical Company, Cat.No. M-1028) • Lysis buffer: 50 mM TRIS pH 7.5 containing 1% Nonidet P40 (Roche Diagnostics GmbH, Cat.No.1754599) 0.5% Deoxycholic acid (SIGMA Chemical Company, Cat.No. D-6750) • final conc.: 1 mM 1 mM PMSF stock solution 70 mM (Roche Diagnostics GmbH, • Cat.No.837091 40 μl/ml Complete (Roche Diagnostics GmbH, Cat.No. 1836145) Final conc.: 40 μl/ml • TMB: Tetramethylbenzidine (Intergen Company, Cat.No. 91000) • Samples: 10 mM in DMSO (stored at −20° C.), thawed at room temperature
# Procedure: • Add 50 μl of anti-hHGFR detection antibody in blocking reagent to assay plate (final conc. 1 μg/ml), incubate assay plate for 60 min at room temperature on an MTP shaker. • Remove anti-hHGFR detection antibody solution from assay plate. • Add 250 μl blocking reagent per well to assay plate, incubate assay plate for 20 h, at 4° C. • Remove blocking reagent from assay plate. • Add 50 μl of HT29 lysate, incubate assay plate for 180 min, at 4° C. on an MTP shaker. • Wash assay plate with 2×200 μl TBS buffer per well. • Add 40 μl of 0.2% DMSO in kinase buffer to assay plate. • Add 40 μl sample solution (dissolved in kinase buffer—final conc. 22.5 μM). • Dissolve samples (1:3 ratio) in MTP. • Add 10 μl ATP dissolved in kinase buffer (200 μM) to samples (final conc. 40 μM ATP). Positive control: add 40 μl kinase buffer plus 10 μl 200 μM ATP. Negative control: add 40 μl kinase buffer plus 10 μl kinase buffer without ATP. […]
# T1 sequence (P12931 whole entry): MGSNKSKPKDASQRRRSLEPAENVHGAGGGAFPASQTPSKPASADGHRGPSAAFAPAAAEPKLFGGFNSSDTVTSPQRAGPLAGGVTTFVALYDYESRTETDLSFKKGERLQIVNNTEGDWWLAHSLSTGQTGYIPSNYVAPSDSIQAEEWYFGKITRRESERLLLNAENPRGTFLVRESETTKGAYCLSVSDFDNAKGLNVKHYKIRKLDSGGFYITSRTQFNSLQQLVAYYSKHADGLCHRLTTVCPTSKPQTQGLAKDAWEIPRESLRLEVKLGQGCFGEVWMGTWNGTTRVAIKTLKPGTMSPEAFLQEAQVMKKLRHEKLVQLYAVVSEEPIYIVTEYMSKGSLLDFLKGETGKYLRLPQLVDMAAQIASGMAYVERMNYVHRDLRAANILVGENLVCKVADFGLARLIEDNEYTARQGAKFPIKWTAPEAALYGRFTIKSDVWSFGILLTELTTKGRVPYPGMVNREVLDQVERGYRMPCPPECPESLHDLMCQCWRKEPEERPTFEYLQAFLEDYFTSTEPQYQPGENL
Structure (SMILES),IC50 (Src (p60^c-src)) [nM],IC50 (c-met) [nM]
"CCN(CC)CCOc1ccc(Nc2nccc(-c3[nH]c(-c4c(Cl)cccc4Cl)nc3-c3cccc(Br)c3)n2)cc1 [Example H1.1, 2-(2,6-dichlorophenyl)-4-(3-bromophenyl)-5-(2-[4-(2-diethylamino-ethoxy)phenylamino]pyrimidin-4-yl)-N—H-imidazole]",6.7,5
"CN(C)c1ccc(Nc2nccc(-c3[nH]c(-c4c(Cl)cccc4Cl)nc3-c3cccc(Cl)c3)n2)cc1 [Example H2.1.3, 2-(2,6-dichlorophenyl)-4-(3-chlorophenyl)-5-(2-[4-dimethylaminophenyl-amino]pyrimidin-4-yl)-N—H-imidazole]",31,167
"Clc1cccc(-c2nc(-c3c(Cl)cccc3Cl)[nH]c2-c2ccnc(Nc3ccc(N4CCOCC4)cc3)n2)c1 [Example H2.1.4, 2-(2,6-dichlorophenyl)-4-(3-chlorophenyl)-5-(2-[4-morpholinophenyl-amino]pyrimidin-4-yl)-N—H-imidazole]",23.3,84
"CCN(CC)CCOc1ccc(Nc2nccc(-c3nc(-c4c(Cl)cc(CO)cc4Cl)[nH]c3-c3cccc(Cl)c3)n2)cc1 [Example H2.2.1, 2-(2,6-dichloro-4-hydroxymethylphenyl)-4-(3-chlorophenyl)-5-(2-[4-(2-diethylaminoethoxy)-phenylamino]pyrimidin-4-yl)-N—H-imidazole]",0.5,4
"CCN(CC)CCOc1ccc(Nc2nccc(-c3[nH]c(-c4c(Cl)cc(OCCO)cc4Cl)nc3-c3cccc(Cl)c3)n2)cc1 [Example H2.3.1, 2-(2,6-dichloro-4-[2-hydroxyethoxy]phenyl)-4-(3-chlorophenyl)-5-(2-[4-(2-diethylaminoethoxy)-phenylamino]pyrimidin-4-yl)-N—H-imidazole]",1.6,–
"C[S+]([O-])c1ccc(Nc2nccc(-c3[nH]c(-c4c(Cl)cc(OCCO)cc4Cl)nc3-c3cccc(Cl)c3)n2)cc1 (stereo not drawn) [Example H2.3.2, 2-(2,6-dichloro-4-[2-hydroxyethoxy]phenyl)-4-(3-chlorophenyl)-5-(2-[4-methylsufinyl-phenylamino]pyrimidin-4-yl)-N—H-imidazole]",331,–
"O=S(=O)(NCCO)c1ccc(Nc2nccc(-c3[nH]c(-c4c(Cl)cc(OCCO)cc4Cl)nc3-c3cccc(Cl)c3)n2)cc1 [Example H2.3.3, 2-(2,6-dichloro-4-[2-hydroxyethoxy]phenyl)-4-(3-chlorophenyl)-5-(2-[4-(N-(2-hydroxyethyl)-ulfamoyl)phenylamino]pyrimidin-4-yl)-N—H-imidazole]",6.7,–
"CCN(CC)CCOc1ccc(Nc2nccc(-c3[nH]c(-c4c(Cl)cccc4Cl)nc3-c3ccc(Cl)cc3)n2)cc1 [Example H3.1.1, 2-(2,6-dichlorophenyl)-4-(4-chlorophenyl)-5-(2-[4-(2-diethylaminoethoxy)-phenylamino]pyrimidin-4-yl)-N—H-imidazole]",24.4,609
"C#Cc1cccc(-c2nc(-c3c(Cl)cccc3Cl)[nH]c2-c2ccnc(Nc3ccc(OCCO)cc3)n2)c1 [Example H4.1.2, 2-(2,6-dichlorophenyl)-4-(3-ethynylphenyl)-5-(2-[4-(2-hydroxyethoxy)-phenylamino]pyrimidin-4-yl)-N—H-imidazole]",33.3,90
